Assay results from patent US9617244B2, “Antibacterial quinoline derivatives” (JANSSEN PHARMACEUTICA NV, priority 2012, dated 2017).
In brackets after ≈: the same amount, converted by molar mass.

Legend:
[1] = test system: Staphylococcus aureus (ATCC29213); assay: In-vitro anti-bacterial activity, microtitre plate assay, IC90 determination (non-mycobacterial strains); format: cell-based; settings: 90% inhibitory concentration for bacterial growth, resazurin fluorescence; for IC90 STA B29213: 24 hours; for IC90: Staphylococcus aureus, ATCC29213, 24 h, read-out: IC90 STA B29213
Procedure, shortened: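 Growth inhibition measured fluorometrically with resazurin (530/590 nm) after overnight 37 °C incubation under normal atmosphere. Bacteria added at roughly 100 TCID50 per well in Mueller-Hinton broth to five-fold compound dilution series; IC90 reported in μg/ml.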

[2] = test system: Mycobacterium smegmatis (ATCC607); assay: In-vitro anti-bacterial activity against strain M. Smegmatis ATCC607; format: cell-based; settings: 90% inhibitory concentration for bacterial growth, Alamar Blue fluorescence; for IC90 MSM 607: 48 hours; for IC90: Mycolicibacterium smegmatis, ATCC607, 48 h, read-out: IC90 MSM 607
Procedure, shortened: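 IC90 (μg/ml) derived from Alamar Blue fluorescence (530/590 nm) after 48 h growth at 37 °C under 5% CO2. About 250 CFU per well in Mueller-Hinton broth faced five-fold serial compound dilutions in BSA-containing wells.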

Row | SMILES | IC90 STA B29213 [1] [µg/mL] | IC90 MSM 607 [2] [µg/mL] | IC90 [1] [µg/mL] | IC90 [2] [µg/mL]
1 | CS(=O)(=O)c1ccc2[nH]c(=O)c(C(c3ccc(Cl)cc3)C3(O)CCNC(Cc4ccc(F)c(F)c4)C3)cc2c1 (stereo not shown) [Compound 213] | >17.31 | >17.31 |  | 
2 | COc1nc2ccc(Br)cc2cc1C(c1ccc(Cl)cc1)C1(O)CCNC(Cc2ccc(F)cc2F)C1 (stereo not shown) [Compound 319] | 2.40 (≈ 4.08 µM) | 2.40 (≈ 4.08 µM) |  | 
3 | COc1nc2ccc(Br)cc2cc1C(c1ccc(Cl)cc1)C1(O)CCNC(Cc2ccc(F)cc2F)C1 (stereo not shown) [Compound 51] | 2.34 (≈ 3.98 µM) | 1.17 (≈ 1.99 µM) |  | 
4 | CS(=O)(=O)c1ccc2[nH]c(=O)c(C(c3ccc(Cl)cc3)C3(O)CCNC(Cc4ccccc4)C3)cc2c1 (stereo not shown) [Compound 119] | >16.90 | >16.90 |  | 
5 | C=CCC1CNCCC1(O)C(c1cccc(Cl)c1)c1cc2cc(Cl)ccc2nc1OC (stereo not shown) [Compound 394] |  |  | 2.89 (≈ 6.32 µM) | 2.29 (≈ 5.01 µM)
6 | O=c1[nH]c2ccc(F)cc2cc1C(c1ccc(Cl)cc1)C1(O)CCNC(Cc2ccccc2)C1 (stereo not shown) [Compound 376] | 3.24 (≈ 6.79 µM) | 2.57 (≈ 5.39 µM) |  | 
7 | COc1nc2ccccc2cc1C(c1ccccc1)C1(O)CCNC(c2ccccc2)C1 (stereo not shown) [Compound 413] |  |  | 18.2 (≈ 43 µM) | 18.2 (≈ 43 µM)
8 | COc1nc2ccc(SC)cc2cc1C(c1ccccc1)C1(O)CCNC(c2ccc(F)cc2C)C1 (stereo not shown) [Compound 169] | 4.96 (≈ 9.87 µM) | 3.94 (≈ 7.84 µM) |  | 
9 | COc1nc2ccc(SC(C)C)cc2cc1C(c1ccc(Cl)cc1)C1(O)CCNC(Cc2ccccc2)C1 (stereo not shown) [Compound 384] | 3.45 (≈ 6.31 µM) | 2.18 (≈ 3.98 µM) |  | 
10 | O=c1[nH]c2ccc(Cl)cc2cc1C(c1ccc(Cl)cc1)C1(O)CCNC(Cc2ccccc2)C1 (stereo not shown) [Compound 240] | 6.67 (≈ 13.5 µM) | 4.21 (≈ 8.53 µM) |  | 
11 | COc1nc2ccc(Br)cc2cc1C(c1cccc(Cl)c1)C1(O)CCNC(c2ccc(F)cc2C)C1 (stereo not shown) [Compound 151] | 5.26 (≈ 9.23 µM) | 2.35 (≈ 4.12 µM) |  | 
12 | CS(=O)(=O)c1ccc2[nH]c(=O)c(C(c3cccc(Cl)c3)C3(O)CCNC(Cc4ccc(F)cc4F)C3)cc2c1 (stereo not shown) [Compound 328] | 15.31 (≈ 26.7 µM) | 12.16 (≈ 21.2 µM) |  | 
13 | Cc1cc(F)ccc1C1CC(O)(C(c2ccccc2)c2cc3cc(S(C)(=O)=O)ccc3[nH]c2=O)CCN1 (stereo not shown) [Compound 265] | >13.92 | 13.92 (≈ 26.7 µM) |  | 
14 | COc1nc2ccc(SC)cc2cc1C(c1ccccc1)C1(O)CCNC(Cc2ccccc2)C1 (stereo not shown) [Compound 141] | 7.77 (≈ 16 µM) | 4.37 (≈ 9.02 µM) |  | 
15 | COc1nc2ccc(Cl)cc2cc1C(c1ccc(Cl)cc1)C1(O)CCNC(c2ccccc2)C1 (stereo not shown) [Compound 403] | 9.72 (≈ 19.7 µM) | 8.66 (≈ 17.6 µM) |  | 
16 | C=CC1CC(O)(C(c2ccc(Cl)cc2)c2cc3cc(Br)ccc3[nH]c2=O)CCN1 (stereo not shown) [Compound 360] | 12.82 (≈ 27.1 µM) | 6.42 (≈ 13.6 µM) |  | 
17 | COc1nc2ccc(Cl)cc2cc1C(c1ccc(SC)cc1)C1(O)CCNC(c2ccc(F)cc2C)C1 (stereo not shown) [Compound 353] | 2.18 (≈ 4.06 µM) | 1.73 (≈ 3.22 µM) |  | 
18 | COc1nc2ccc(S(C)(=O)=O)cc2cc1C(c1ccc(Cl)cc1)C1(O)CCNC(c2ccc(F)cc2C)C1 (stereo not shown) [Compound 201] | >19.28 | >19.28 |  | 
19 | Cc1cc(F)ccc1C1CC(O)(C(c2ccccc2)c2cc3cc(Br)ccc3[nH]c2=O)CCN1 (stereo not shown) [Compound 192] | 7.00 (≈ 13.4 µM) | 13.96 (≈ 26.8 µM) |  | 
20 | Cc1cc(F)ccc1C1CC(O)(C(c2ccc(Cl)cc2)c2cc3cc(Br)ccc3[nH]c2=O)CCN1 (stereo not shown) [Compound 7] | 1.49 (≈ 2.68 µM) | 0.94 (≈ 1.69 µM) |  | 
21 | CSc1ccc(C(c2cc3cc(Cl)ccc3[nH]c2=O)C2(O)CCNC(c3ccc(F)cc3C)C2)cc1 (stereo not shown) [Compound 349] | 7.04 (≈ 13.5 µM) | 7.04 (≈ 13.5 µM) |  | 
22 | COc1nc2ccc(Br)cc2cc1C(c1ccc(Cl)cc1)C1(O)CCNC(Cc2ccccc2)C1 (stereo not shown) [Compound 77] | 5.49 (≈ 9.95 µM) | 4.36 (≈ 7.9 µM) |  | 

Row | SMILES | IC90 STA B29213 [1] [µg/mL] | IC90 MSM 607 [2] [µg/mL] | IC90 [1] [µg/mL] | IC90 [2] [µg/mL]
23 | CSc1ccc2[nH]c(=O)c(C(c3ccc(Cl)cc3)C3(O)CCNC(c4ccc(F)cc4C)C3)cc2c1 (stereo not shown) [Compound 278] | 1.77 (≈ 3.38 µM) | 1.40 (≈ 2.68 µM) |  | 
24 | COc1nc2ccc(Br)cc2cc1C(c1ccc(Cl)cc1)C1(O)CCNC(Cc2ccccn2)C1 (stereo not shown) [Compound 381] | 3.49 (≈ 6.31 µM) | 1.75 (≈ 3.17 µM) |  | 
25 | CS(=O)(=O)c1ccc2[nH]c(=O)c(C(c3ccc(Cl)cc3)C3(O)CCN[C@@H](Cc4ccc(F)c(F)c4)C3)cc2c1 (stereo in doubt) [Compound 207] | 3.83 (≈ 6.68 µM) | 3.83 (≈ 6.68 µM) |  | 
26 | Cc1cc(F)ccc1C1CC(O)(C(c2cccc(Cl)c2)c2cc3cc(Br)ccc3[nH]c2=O)CCN1 (stereo not shown) [Compound 138] | 2.35 (≈ 4.23 µM) | 1.18 (≈ 2.12 µM) |  | 
27 | COc1nc2ccccc2cc1C(c1ccccc1)C1(O)CCNC(Cc2ccccc2)C1 (stereo not shown) [Compound 400] | >12.47 | >12.47 |  | 
28 | O=c1[nH]c2ccc(Br)cc2cc1C(c1ccc(Cl)cc1)C1(O)CCNC(Cc2ccc(F)cc2F)C1 (stereo not shown) [Compound 322] | 2.43 (≈ 4.23 µM) | 3.85 (≈ 6.71 µM) |  | 
29 | CSc1ccc2[nH]c(=O)c(C(c3ccc(Cl)cc3)C3(O)CCNC(CC4CCCCC4)C3)cc2c1 (stereo not shown) [Compound 298] | 6.88 (≈ 13.5 µM) | 6.88 (≈ 13.5 µM) |  | 
30 | CSc1ccc2[nH]c(=O)c(C(c3ccc(Cl)cc3)C3(O)CCNC(c4ccc(F)cc4C)C3)cc2c1 (stereo not shown) [Compound 268] | 1.76 (≈ 3.36 µM) | 1.40 (≈ 2.68 µM) |  | 
31 | CSc1ccc2[nH]c(=O)c(C(c3ccc(Cl)cc3)C3(O)CCNC(c4ccccc4)C3)cc2c1 (stereo not shown) [Compound 234] | 5.24 (≈ 10.7 µM) | 3.71 (≈ 7.56 µM) |  | 
32 | COc1nc2ccc(Cl)cc2cc1C(c1ccc(Cl)cc1)C1(O)CCNC(c2cccnc2)C1 (stereo not shown) [Compound 28] | 6.22 (≈ 12.6 µM) | 3.12 (≈ 6.31 µM) |  | 
33 | O=c1[nH]c2ccc(Cl)cc2cc1C(c1ccc(Cl)cc1)C1(O)CCNC(Cc2ccc(F)cc2)C1 (stereo not shown) [Compound 343] |  |  | 6.9 (≈ 13.5 µM) | 4.35 (≈ 8.51 µM)
34 | COc1nc2ccc(S(C)(=O)=O)cc2cc1C(c1ccc(Cl)cc1)C1(O)CCNCC1Cc1cccc(F)c1 (stereo not shown) [Compound 292] | 7.16 (≈ 12.6 µM) | 5.69 (≈ 10 µM) |  | 
35 | CSc1ccc2[nH]c(=O)c(C(c3cccc(Cl)c3)C3(O)CCNC(c4ccc(F)cc4C)C3)cc2c1 (stereo not shown) [Compound 161] | 6.90 (≈ 13.2 µM) | 6.90 (≈ 13.2 µM) |  | 
36 | COc1nc2ccccc2cc1C(c1ccc(Cl)cc1)C1(O)CCNC(CO)C1 (stereo not shown) [Compound 10] |  |  | > 10.4 | > 10.4
37 | COc1nc2ccc(SC)cc2cc1C(c1ccccc1)C1(O)CCNC(c2ccc(F)cc2C)C1 (stereo not shown) [Compound 170] | 5.27 (≈ 10.5 µM) | 4.69 (≈ 9.33 µM) |  | 
38 | CSc1ccc2[nH]c(=O)c(C(c3ccc(Cl)cc3)C3(O)CCNC(Cc4ccc(F)cc4)C3)cc2c1 (stereo not shown) [Compound 281] | 3.53 (≈ 6.75 µM) |  |  | 7.03 (≈ 13.4 µM)
39 | COc1nc2ccc(Br)cc2cc1C(c1ccc(Cl)cc1)C1(O)CCNC(Cc2ccccn2)C1 (stereo not shown) [Compound 380] | 5.16 (≈ 9.33 µM) | 4.10 (≈ 7.42 µM) |  | 
40 | CSc1ccc2[nH]c(=O)c(C(c3ccc(Cl)cc3)C3(O)CCNC(c4ccccc4)C3)cc2c1 (stereo not shown) [Compound 231] | 3.30 (≈ 6.72 µM) | 2.62 (≈ 5.34 µM) |  | 
41 | O=c1[nH]c2ccc(Br)cc2cc1C(c1ccc(Cl)cc1)C1(O)CCNC(Cc2ccc(F)cc2)C1 (stereo not shown) [Compound 365] | 3.74 (≈ 6.73 µM) | 3.74 (≈ 6.73 µM) |  | 
42 | COc1nc2ccc(Cl)cc2cc1C(c1ccc(Cl)cc1)C1(O)CCNCC1c1ccccc1 (stereo not shown) [Compound 410] | 12.25 (≈ 24.8 µM) | 7.73 (≈ 15.7 µM) |  | 
43 | COc1nc2ccc(SC)cc2cc1C(c1ccc(Cl)cc1)C1(O)CCNCC1Cc1cccc(F)c1 (stereo not shown) [Compound 285] | >13.49 | >13.49 |  | 
44 | COc1nc2ccc(S(C)(=O)=O)cc2cc1C(c1ccc(Cl)cc1)C1(O)CCNCC1Cc1cccc(F)c1 (stereo not shown) [Compound 293] | 7.16 (≈ 12.6 µM) | 7.16 (≈ 12.6 µM) |  | 
